Experiment: xn = mol fraction of the nth substance listed

CC(CC(C)(C)C)CC(C)(C)CC(C)(C)C (stereo not given) + CC1CCCCC1
viscosity [mPa·s], 100 kPa
Conditions	x2 = 0.125	x2 = 0.25	x2 = 0.375	x2 = 0.5	x2 = 0.625	x2 = 0.75	x2 = 0.875
293.15 K	3.188	2.761	2.275	1.89	1.52	1.244	0.967
303.15 K	2.553	2.272	1.864	1.556	1.283	1.047	0.834
313.15 K	2.1	1.886	1.574	1.32	1.096	0.908	0.725
323.15 K	1.766	1.538	1.329	1.136	0.953	0.802	0.641

COCCO + CCC(C)=O
viscosity [mPa·s]
Conditions	298.15 K	308.15 K	318.15 K
101 kPa, x2 = 0.1049	1.321	–	–
101 kPa, x2 = 0.2087	1.113	–	–
101 kPa, x2 = 0.3115	0.937	–	–
101 kPa, x2 = 0.413	0.78	–	–
101 kPa, x2 = 0.5135	0.64	–	–
101 kPa, x2 = 0.6128	0.525	–	–
101 kPa, x2 = 0.7112	0.464	–	–
101 kPa, x2 = 0.8085	0.43	–	–
101 kPa, x2 = 0.9047	0.41	–	–
101.33 kPa, x1 = 0.1014	0.423	0.378	0.339
101.33 kPa, x1 = 0.2118	0.474	0.419	0.373
101.33 kPa, x1 = 0.3001	0.53	0.469	0.418
101.33 kPa, x1 = 0.3864	0.591	0.521	0.463
101.33 kPa, x1 = 0.4984	0.695	0.607	0.534
101.33 kPa, x1 = 0.601	0.805	0.696	0.607
101.33 kPa, x1 = 0.695	0.938	0.802	0.692
101.33 kPa, x1 = 0.8004	1.12	0.945	0.803
101.33 kPa, x1 = 0.9019	1.334	1.108	0.931

O=P([O-])(O)O.[Li+] + O
viscosity [mPa·s], 101 kPa
Conditions	x1 = 0.0018	x1 = 0.0054	x1 = 0.0089	x1 = 0.012	x1 = 0.016
298.15 K	0.9076	1.021	1.099	1.209	1.318
303.15 K	0.8338	0.9078	0.9891	1.084	1.211
308.15 K	0.7493	0.8183	0.888	0.9579	1.028

CCCCBr + C1CCCCC1
308.15 K, 101 kPa
Conditions	viscosity [mPa·s]
x2 = 0.1017	0.5246
x2 = 0.2037	0.5305
x2 = 0.3038	0.5365
x2 = 0.4015	0.5458
x2 = 0.5006	0.5596
x2 = 0.5951	0.5789
x2 = 0.7004	0.6032
x2 = 0.8014	0.6338
x2 = 0.899	0.6799

CCCC(C)O (stereo not given) + CN(C)C=O
viscosity [mPa·s], 101 kPa
Conditions	x2 = 0.109	x2 = 0.1534	x2 = 0.2404	x2 = 0.345	x2 = 0.4412	x2 = 0.5603	x2 = 0.6548	x2 = 0.7436	x2 = 0.8432	x2 = 0.9376
298.15 K	2.69	2.51	2.26	2.01	1.82	1.59	1.41	1.25	1.07	0.91
303.15 K	2.23	2.05	1.84	1.65	1.51	1.33	1.21	1.08	0.96	0.84
308.15 K	1.83	1.68	1.49	1.35	1.24	1.13	1.04	0.95	0.86	0.78
313.15 K	1.54	1.4	1.24	1.13	1.05	0.97	0.91	0.86	0.79	0.72

CCCCCCCBr + ClC(Cl)(Cl)Cl
viscosity [mPa·s], 101 kPa
Conditions	293.15 K	303.15 K	313.15 K	323.15 K
x1 = 0.123	1.015	0.878	0.769	0.677
x1 = 0.259	1.045	0.905	0.797	0.705
x1 = 0.412	1.09	0.945	0.832	0.738
x1 = 0.584	1.13	0.982	0.865	0.767

COCCO + Cc1ccccc1
viscosity [mPa·s]
Conditions	298.15 K	303.15 K	308.15 K
101 kPa, x1 = 0.0586	0.571	–	0.512
101 kPa, x1 = 0.1696	0.617	–	0.545
101 kPa, x1 = 0.2421	0.654	–	0.571
101 kPa, x1 = 0.3513	0.719	–	0.618
101 kPa, x1 = 0.4555	0.796	–	0.674
101 kPa, x1 = 0.4987	0.833	–	0.7
101 kPa, x1 = 0.5515	0.882	–	0.736
101 kPa, x1 = 0.6515	0.99	–	0.814
101 kPa, x1 = 0.7487	1.118	–	0.905
101 kPa, x1 = 0.8495	1.279	–	1.021
101 kPa, x1 = 0.9558	1.49	–	1.17
101.33 kPa, x1 = 0.1311	–	0.566	–
101.33 kPa, x1 = 0.2283	–	0.608	–
101.33 kPa, x1 = 0.3137	–	0.645	–
101.33 kPa, x1 = 0.4277	–	0.716	–
101.33 kPa, x1 = 0.5253	–	0.784	–
101.33 kPa, x1 = 0.6244	–	0.87	–
101.33 kPa, x1 = 0.7116	–	0.954	–
101.33 kPa, x1 = 0.8018	–	1.057	–
101.33 kPa, x1 = 0.9149	–	1.219	–

CCCCBr + ClC(Cl)(Cl)Cl
101 kPa
Conditions	viscosity [mPa·s]
295.95 K, x1 = 0.0935	0.874
295.95 K, x1 = 0.1213	0.8589
295.95 K, x1 = 0.171	0.8365
295.95 K, x1 = 0.2166	0.8163
295.95 K, x1 = 0.3376	0.7686
295.95 K, x1 = 0.5094	0.7155
295.95 K, x1 = 0.6766	0.6738
303.45 K, x1 = 0.0948	0.7853
303.45 K, x1 = 0.1316	0.7681
303.45 K, x1 = 0.1914	0.7427
303.45 K, x1 = 0.3229	0.698
303.45 K, x1 = 0.4875	0.6544
303.45 K, x1 = 0.7961	0.5884
313.25 K, x1 = 0.127	0.6844
313.25 K, x1 = 0.2061	0.6557
313.25 K, x1 = 0.2967	0.6297
313.25 K, x1 = 0.4576	0.5922
313.25 K, x1 = 0.6279	0.5598
313.25 K, x1 = 0.761	0.5382
313.25 K, x1 = 0.7961	0.5329

CC[N+](CC)(CC)CC.[OH-] + CS(C)=O
viscosity [mPa·s], 100 kPa
Conditions	298.15 K	303.15 K	308.15 K	313.15 K
x1 = 0.0142	2.08	1.9	1.77	1.67
x1 = 0.0405	2.24	2.07	1.96	1.88
x1 = 0.0693	2.45	2.29	2.18	2.09
x1 = 0.0995	2.65	2.49	2.38	2.29
x1 = 0.1314	2.89	2.72	2.62	2.52
x1 = 0.165	3.11	2.95	2.84	2.76
x1 = 0.1925	3.29	3.12	3	2.92
x1 = 0.2381	3.57	3.41	3.3	3.24
x1 = 0.2988	3.9	3.75	3.66	3.58
x1 = 0.3654	4.23	4.1	4	3.95
x1 = 0.4134	4.45	4.34	4.22	4.18
x1 = 0.4647	4.66	4.56	4.45	4.41
x1 = 0.5486	4.94	4.85	4.73	4.71
x1 = 0.6421	5.17	5.08	4.96	4.92
x1 = 0.7106	5.37	5.17	5.02	5
x1 = 0.7848	5.3	5.2	5.03	4.99
x1 = 0.8653	5.23	5.12	4.96	4.89
x1 = 0.9531	5.08	4.89	4.67	4.54

CCOC(=O)C(=O)OCC + CCCCCCCCO
303.15 K, 101.33 kPa
Conditions	viscosity [mPa·s]
x1 = 0.0949	4.702
x1 = 0.2003	3.667
x1 = 0.2883	3.152
x1 = 0.4	2.636
x1 = 0.5026	2.296
x1 = 0.6064	2.027
x1 = 0.6984	1.86
x1 = 0.7809	1.74
x1 = 0.8763	1.638

CCCC(C)O (stereo not given) + CC(C)OC(C)C
viscosity [mPa·s], 100 kPa
Conditions	x2 = 0.0801	x2 = 0.1597	x2 = 0.2402	x2 = 0.3503	x2 = 0.4399	x2 = 0.5598	x2 = 0.6493	x2 = 0.7372	x2 = 0.8487	x2 = 0.9379
293.15 K	3.43	2.94	2.52	2.08	1.76	1.386	1.13	0.9	0.64	0.45
298.15 K	2.87	2.44	2.1	1.74	1.48	1.176	0.969	0.783	0.57	0.42
303.15 K	2.42	2.06	1.78	1.49	1.286	1.04	0.864	0.705	0.518	0.389
308.15 K	2.04	1.74	1.5	1.26	1.09	0.89	0.75	0.62	0.47	0.36
313.15 K	1.71	1.45	1.26	1.06	0.922	0.755	0.64	0.536	0.414	0.33
318.15 K	1.42	1.2	1.05	0.89	0.78	0.642	0.547	0.467	0.375	0.306
323.15 K	1.19	1.02	0.89	0.76	0.667	0.554	0.477	0.41	0.33	0.28

CCCC(=O)O + CC(C)=O
viscosity [mPa·s], 101 kPa
Conditions	x1 = 0.0996	x1 = 0.1883	x1 = 0.3023	x1 = 0.3759	x1 = 0.5144	x1 = 0.5977	x1 = 0.7009	x1 = 0.7989	x1 = 0.9016	x1 = 0.9275
298.15 K	0.3862	0.4576	0.5666	0.6477	0.8181	0.9307	1.071	1.216	1.361	1.408
308.15 K	0.351	0.4131	0.5047	0.5741	0.7153	0.8095	0.9246	1.041	1.158	1.197
318.15 K	0.3183	0.3666	0.4489	0.5135	0.6265	0.7078	0.7969	0.8942	0.9947	1.018

CCCCNCCCC + C1COCCO1
Conditions	viscosity [mPa·s]
303.15 K, 101 kPa, x1 = 0.01068	1.065

CCCC(C)O (stereo not given) + CCCCCC
viscosity [mPa·s], 101.33 kPa
Conditions	x1 = 0.1	x1 = 0.2	x1 = 0.3	x1 = 0.4	x1 = 0.5	x1 = 0.6	x1 = 0.7	x1 = 0.8	x1 = 0.9
303 K	0.28	0.31	0.382	0.537	0.682	0.878	1.228	1.588	1.965
313 K	0.249	0.277	0.36	0.44	0.544	0.802	0.967	1.21	1.484
323 K	0.228	0.254	0.31	0.385	0.472	0.634	0.805	0.981	1.138

COCCO + c1ccccc1
viscosity [mPa·s]
Conditions	298.15 K	303.15 K	308.15 K
101 kPa, x1 = 0.0543	0.624	–	0.541
101 kPa, x1 = 0.1499	0.669	–	0.571
101 kPa, x1 = 0.2235	0.708	–	0.598
101 kPa, x1 = 0.3508	0.788	–	0.654
101 kPa, x1 = 0.4496	0.862	–	0.707
101 kPa, x1 = 0.4961	0.902	–	0.735
101 kPa, x1 = 0.5462	0.947	–	0.768
101 kPa, x1 = 0.6455	1.049	–	0.842
101 kPa, x1 = 0.7524	1.18	–	0.938
101 kPa, x1 = 0.8509	1.323	–	1.043
101 kPa, x1 = 0.9558	1.505	–	1.177
101.33 kPa, x1 = 0.1174	–	0.599	–
101.33 kPa, x1 = 0.1933	–	0.628	–
101.33 kPa, x1 = 0.2642	–	0.659	–
101.33 kPa, x1 = 0.3837	–	0.728	–
101.33 kPa, x1 = 0.4988	–	0.807	–
101.33 kPa, x1 = 0.654	–	0.945	–
101.33 kPa, x1 = 0.7474	–	1.049	–
101.33 kPa, x1 = 0.843	–	1.188	–
101.33 kPa, x1 = 0.8998	–	1.246	–
